Laboratory results: publication PMC12718261, “New Fluorescent Synthetic Retinoids as Potential RAR Agonists with Anticancer, Molecular Docking and ADME Assessments” (Journal of Fluorescence, 2025)
Values joined by “and” are separate entries in the source; they are usually repeats but may differ in a detail not shown here. Equal values may be shown once.

What was measured:
Format in all cases: cell-based
[1] = test system: HepG-2; assay: MTT anti-proliferative assay; details: Homo sapiens, HepG2; HepG-2, MTT, 24 h, mean ± SEM
Experimental: (§1) The antiproliferation and cytotoxicity were assessed using 3-(4,5-dimethylthiazol-2-yl)−2,5-diphenyltetrazolium bromide (MTT, Serva) colorimetric assay. All tested cancer cell lines were seeded at a density of 20,000 cells per well in 96-well plates and allowed to adhere overnight. The attached cells were treated with five serial dilutions (100, 50, 5, 0.5, and 0.1 μM) in triplicate. These concentrations were prepared by diluting the stock solutions with serum-free culture media. The negative control cells were those treated with 0.1% DMSO solvent alone. The treated cells were handled in reduced light and maintained under standard culture growth conditions for 24 h. After the incubation period, MTT powder was prepared as a stock solution (5 mg/mL), and 20 μL of the MTT working reagent (final concentration 0.5 mg/mL) was added to each well. This was followed by incubation with MTT reagent for 4 h in a humidified atmosphere (37 °C, 5% CO2) with subsequent addition of 150 μL of DMSO solubilizing solvent and incubation for 20 min. The absorbance of solubilized violet formazan crystals was measured at 570 nm with a Biotek 800 TS microplate reader. IC50 was calculated as the concentration of retinoid that produced 50% cell growth inhibition. For cytotoxicity assessment, WI-38 normal human fibroblast cells were used for the calculation of SI, which is the ratio of IC50 retinoid (WI-38)/IC50 retinoid (cancer cell line).

[2] = test system: Caco-2; assay: MTT anti-proliferative assay; details: Homo sapiens; Caco-2, MTT, 24 h, mean ± SEM
Experimental: as §1

[3] = test system: PC-3; assay: MTT anti-proliferative assay; details: Homo sapiens; PC-3, MTT, 24 h, mean ± SEM
Experimental: as §1

[4] = test system: HCT-116; assay: MTT anti-proliferative assay; details: Homo sapiens; HCT-116, MTT, 24 h, mean ± SEM
Experimental: as §1

[5] = test system: MCF-7; assay: MTT anti-proliferative assay; details: Homo sapiens, MCF7; MCF-7, MTT, 24 h, mean ± SEM
Experimental: as §1

[6] = test system: MDA-MB231; assay: MTT anti-proliferative assay; details: Homo sapiens, MDA-MB-231, 24 h, mean ± SEM
Experimental: as §1

[7] = test system: RAR-γ gene in Caco-2 cells; assay: Gene expression RT-qPCR; details: Caco-2, IC50 dose, 24 h, relative to 0.1% DMSO, normalized to GAPDH
Experimental: (§2) The gene expression analysis was performed using real-time quantitative PCR (RT-qPCR), as previously documented. After incubation, cells were harvested, and total RNA was extracted using the Favor-PrepTM Blood/Cultured Cell Total RNA Purification Mini kit (Favorgen Biotech Corp., Ping-Tung, Taiwan). The purified RNA was then reverse transcribed into the first-strand cDNA using the Revert Aid First-Strand cDNA Synthesis Kit (Thermo Scientific, Waltham, MA, USA). All qPCR reactions were carried out using the […] SYBR® Green qPCR Kit (Willowfort, Nottingham, UK). Differential gene expression was performed using the 2ˆ^−ΔΔCT method utilizing GAPDH as a reference gene.

[8] = test system: CRABPI gene in Caco-2 cells; assay: Gene expression RT-qPCR; details: Caco-2, IC50 dose, 24 h, relative to 0.1% DMSO, normalized to GAPDH
Experimental: as §2

[9] = test system: Cyt-C gene in Caco-2 cells; assay: Gene expression RT-qPCR; details: Caco-2, IC50 dose, 24 h, relative to 0.1% DMSO, normalized to GAPDH
Experimental: as §2

[10] = test system: CRABPII gene in Caco-2 cells; assay: Gene expression RT-qPCR; details: Caco-2, IC50 dose, 24 h, relative to 0.1% DMSO, normalized to GAPDH
Experimental: as §2

[11] = test system: RAR-α gene in Caco-2 cells; assay: Gene expression RT-qPCR; details: Caco-2, IC50 dose, 24 h, relative to 0.1% DMSO, normalized to GAPDH
Experimental: as §2

[12] = test system: Caspase-3 gene in Caco-2 cells; assay: Gene expression RT-qPCR; details: Caco-2, IC50 dose, 24 h, relative to 0.1% DMSO, normalized to GAPDH
Experimental: as §2

[13] = test system: RAR-α, RAR-β, RAR-γ proteins in Caco-2 cells; assay: Western blotting of RAR proteins; details: Caco-2, IC50 dose, 24 h, normalized to β-actin
Experimental: Using the previously outlined protocol, the western blot technique was used to determine the expression of RAR-α (Cat. No. E6Z6 K, cell signaling, USA), RAR-β (Cat. No. PP-H4338-00, R&D systems, USA) and RAR- γ (Cat. No. D3 A4, cell signaling, USA) in Caco-2 cells. […] Following incubation, floating adhered cells were separated and lysed. The Caco-2 cell lysate was immediately collected, subjected to sonication, and centrifuged for 15 min at 12,000 × g. The total soluble protein content was measured colorimetrically using the PierceTM 660 nm Assay (Thermo Scientific, Waltham, MA, USA) after the resultant supernatant was separated. The Gel documentation system (Geldoc-it, UVP, England) was applied for data analysis using Totallab analysis software (Ver.1.0.1) (ww.totallab.com).

[14] = test system: Caco-2 cancer cells; assay: Cell cycle assay PI staining flow cytometry; details: Caco-2, IC50 dose, 24 h
Experimental: The standard protocol used in HSBR was performed. […] Cells were concentrated at 1500 xg and suspended in 50 μg/ml propidium iodide (PI) staining solution and 20 µg/ml RNaseA to identify cells with a sub-G1 DNA content. Cytoflex flow cytometer (Beckman Coulter, USA) was used, and CytExpert software (version 2.4.0.28) was employed for data analysis. The gating strategy used to eliminate doublets depends on plotting the population against a 2D contour plot in four quadrants, referred to as Q1(LL), Q2 (LR), Q3 (UL), and Q4 (UR), that illustrates the spread of the Annexin-FITC-H core cell population against PI PE-H.

[15] = test system: WI-38 normal human fibroblast cells; assay: MTT cytotoxicity assay on normal fibroblasts; details: WI-38 normal fibroblast cells, 24 h, mean ± SEM
Experimental: as §1

[16] = test system: Caco-2 cancer cells; assay: Apoptosis assay Annexin V/PI flow cytometry; details: Caco-2, IC50 dose, 24 h, AV/PI
Experimental: The standard protocol used in HSBR was performed. […] Cells were rinsed with 1 mL of binding buffer; the cells were again suspended in phosphate-buffered saline (PBS) (Lonza). 100 µL of cell suspension was incubated with 1 µL of FITC-labeled Annexin-V and 5 µL of PI for 15 min at 4 °C in the dark. The suspension was then mixed with 400 µL of ice-cold binding buffer, and each sample's apoptotic cells were analyzed using a Cytoflex flow cytometer (Beckman Coulter, USA), and CytExpert software (version 2.4.0.28) was employed for data analysis.

[17] = test system: total ATPase in Caco-2 cells; assay: Total ATPase activity, malachite green colorimetric; details: Caco-2, IC50 dose, 24 h; 0.1% DMSO control normalized to 100%
Experimental: (§3) The total activity of ATPase and calcium-independent ATPase activity was quantified colorimetrically as described by our previous protocol. […] The inorganic phosphate (Pi) liberated after the hydrolysis of ATP by ATPase enzymes was complexed into a colored product in one step after the addition of a mixed reagent containing malachite green, ammonium molybdate, and polyvinyl alcohol (2:1:1). The intensity of absorbance at 630 nm was measured using the BioTek 800 TS absorbance plate reader (USA) and was directly proportional to the quantity of liberated Pi. In order to eliminate any color due to the non-enzymatic hydrolysis of ATP, control reactions were made using only ATP in the reaction buffer, and the absorbance intensity was then subtracted from the readings of the samples and standards.

[18] = test system: calcium-independent ATPases in Caco-2 cells; assay: Calcium-independent ATPase activity, malachite green colorimetric; details: Caco-2, IC50 dose, 24 h; 0.1% DMSO control normalized to 100%
Experimental: as §3

IC50 [2]: 15 ± 0.4 µM
IC50 [3]: 2.71 ± 0.2 µM
IC50 [4]: 36.9 ± 2.4 µM
IC50 [5]: 53.1 ± 5.4 µM
IC50 [6]: 2.28 ± 0.2 µM
SMILES: O=C(O)c1ccc2cc(-c3ccc4c(c3)CCCO4)ccc2c1 [Compound 4b, 6-(chroman-6-yl)−2-naphthoic acid]
IC50 [1]: 59.5 ± 3.5 µM
RAR-γ gene expression fold change [7]: 4.3 ± 0.2 fold
CRABPI gene expression fold change [8]: 53.5 ± 2.4 fold
Cyt-C gene expression fold change [9]: 1.7 ± 0.1 fold
CRABPII gene expression fold change [10]: 2.0 ± 0.1 fold
RAR-α gene expression fold change [11]: 2.9 ± 0.1 fold
caspase-3 gene expression fold change [12]: 2.3 ± 0.1 fold
RAR protein expression (western blot) [13]: overexpression of all RAR subtypes
% G0-G1 [14]: 17.69 ± 3.2%
% G2M [14]: 1.76 ± 0.1%
% S [14]: 4.16 ± 1.5%
% SubG0-G1 [14]: 76.81% and 76.81 ± 6.7 %
IC50 [15]: 33.5 ± 3.4 µM
% Early apoptotic cells (LR) [16]: 61.41% and 61.41 ± 5.3 %
% Late apoptotic cells (UL) [16]: 0.09%
% Necrotic cells (UR) [16]: 38.12 ± 2.8 %
% Viable cells (LL) [16]: 0.37%
total ATPase activity [17]: 34.6%
ca+2-independent ATPase activity [18]: 36.1%
